Assay results from the supplement of paper PMC10307832.

Columns and labels:
Assay in all cases: relative viability (nuclei count vs DMSO), 5 days (fraction); higher = more cells survive
[1] = test system: A-427
Summary of the method: (§1)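 Relative viability equals treated-well nuclei counts divided by vehicle-well nuclei counts. Counts came from 4× images of lung cancer cell lines grown in 1536-well plates for 5 days after pin-tool dosing on the day after seeding. Dosing used one drug alone or a fixed anchor-drug dose plus five library-drug doses (not always all listed) in √10 steps, and values are medians of duplicate plates.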

[2] = test system: COR-L 105
Summary of the method: as §1

[3] = test system: EPLC-272H
Summary of the method: as §1

[4] = test system: HCC-366
Summary of the method: as §1

[5] = test system: HCC-78
Summary of the method: as §1

[6] = test system: HOP-62
Summary of the method: as §1

[7] = test system: LC-2-ad
Summary of the method: as §1

[8] = test system: LCLC-97TM1
Summary of the method: as §1

[9] = test system: LU99A
Summary of the method: as §1

[10] = test system: LXF-289
Summary of the method: as §1

[11] = test system: NCI-H1755
Summary of the method: as §1

[12] = test system: NCI-H1792
Summary of the method: as §1

[13] = test system: NCI-H1915
Summary of the method: as §1

[14] = test system: NCI-H1944
Summary of the method: as §1

[15] = test system: NCI-H1975
Summary of the method: as §1

[16] = test system: NCI-H2085
Summary of the method: as §1

[17] = test system: NCI-H2170
Summary of the method: as §1

[18] = test system: NCI-H358
Summary of the method: as §1

[19] = test system: NCI-H460
Summary of the method: as §1

[20] = test system: SK-LU-1
Summary of the method: as §1

[21] = test system: UMC-11
Summary of the method: as §1

In the case of CC1(C)CCC(c2ccc(Cl)cc2)=C(CN2CCN(c3ccc(C(=O)NS(=O)(=O)c4ccc(N[C@H](CCN5CCOCC5)CSc5ccccc5)c(S(=O)(=O)C(F)(F)F)c4)cc3)CC2)C1 [Navitoclax] + C[C@@H](Oc1cc(-c2cnn(C3CCNCC3)c2)cnc1N)c1c(Cl)ccc(F)c1Cl [Crizotinib] (partner 1 µM), the relative viability ([1]; first compound 0.005 µM) is reported as 0.828, the relative viability ([1]; first compound 0.01581 µM) is reported as 0.948 and the relative viability ([1]; first compound 0.05 µM) is reported as 0.652. The relative viability ([1]; first compound 0.1581 µM) was 1.01, the relative viability ([1]; first compound 0.5 µM) was 0.915 and the relative viability ([2]; first compound 0.005 µM) was 0.651. The relative viability ([2]; first compound 0.01581 µM) was 0.98, the relative viability ([2]; first compound 0.05 µM) was 0.773 and the relative viability ([2]; first compound 0.1581 µM) was 0.927. For the same compound, the relative viability ([2]; first compound 0.5 µM) was 0.699, the relative viability ([3]; first compound 0.005 µM) was 1.37 and the relative viability ([3]; first compound 0.1581 µM) was 0.99. For the same compound, the relative viability ([3]; first compound 0.5 µM) was 1.08, the relative viability ([4]; first compound 0.005 µM) was 0.456 and the relative viability ([4]; first compound 0.01581 µM) was 0.635. For the same compound, the relative viability ([4]; first compound 0.05 µM) was 0.0527, the relative viability ([4]; first compound 0.1581 µM) was 0.514 and the relative viability ([4]; first compound 0.5 µM) was 0.562. For the same compound, the relative viability ([5]; first compound 0.005 µM) was 0.368, the relative viability ([5]; first compound 0.01581 µM) was 0.376 and the relative viability ([5]; first compound 0.1581 µM) was 0.345. The relative viability ([5]; first compound 0.5 µM) was 0.322, the relative viability ([6]; first compound 0.005 µM) was 0.965 and the relative viability ([6]; first compound 0.01581 µM) was 1.09. For the same compound, the relative viability ([6]; first compound 0.05 µM) was 0.926, the relative viability ([6]; first compound 0.1581 µM) was 0.917 and the relative viability ([6]; first compound 0.5 µM) was 1.03. The relative viability ([7]; first compound 0.005 µM) was 0.422, the relative viability ([7]; first compound 0.01581 µM) was 0.489 and the relative viability ([7]; first compound 0.05 µM) was 0.538. It also gave a relative viability ([7]; first compound 0.1581 µM) of 0.429, a relative viability ([7]; first compound 0.5 µM) of 0.575 and a relative viability ([8]; first compound 0.005 µM) of 0.358. The relative viability ([8]; first compound 0.01581 µM) was 0.337, the relative viability ([8]; first compound 0.05 µM) was 0.294 and the relative viability ([8]; first compound 0.1581 µM) was 0.333. For the same compound, the relative viability ([8]; first compound 0.5 µM) was 0.381, the relative viability ([9]; first compound 0.005 µM) was 0.549 and the relative viability ([9]; first compound 0.01581 µM) was 0.691. For the same compound, the relative viability ([9]; first compound 0.05 µM) was 0.39, the relative viability ([9]; first compound 0.1581 µM) was 0.588 and the relative viability ([9]; first compound 0.5 µM) was 0.638. For the same compound, the relative viability ([10]; first compound 0.005 µM) was 0.736, the relative viability ([10]; first compound 0.01581 µM) was 0.836 and the relative viability ([10]; first compound 0.05 µM) was 0.787. For the same compound, the relative viability ([10]; first compound 0.1581 µM) was 0.797, the relative viability ([10]; first compound 0.5 µM) was 0.794 and the relative viability ([11]; first compound 0.005 µM) was 0.823. For the same compound, the relative viability ([11]; first compound 0.01581 µM) was 0.903, the relative viability ([11]; first compound 0.05 µM) was 0.715 and the relative viability ([11]; first compound 0.1581 µM) was 0.859. It also gave a relative viability ([11]; first compound 0.5 µM) of 0.89, a relative viability ([12]; first compound 0.005 µM) of 0.996 and a relative viability ([12]; first compound 0.01581 µM) of 1.04. It also gave a relative viability ([12]; first compound 0.05 µM) of 0.911, a relative viability ([12]; first compound 0.1581 µM) of 1 and a relative viability ([12]; first compound 0.5 µM) of 0.946. For the same compound, the relative viability ([13]; first compound 0.005 µM) was 0.915, the relative viability ([13]; first compound 0.01581 µM) was 0.881 and the relative viability ([13]; first compound 0.05 µM) was 0.877. For the same compound, the relative viability ([13]; first compound 0.1581 µM) was 0.879, the relative viability ([13]; first compound 0.5 µM) was 0.858 and the relative viability ([14]; first compound 0.005 µM) was 1.05. The relative viability ([14]; first compound 0.01581 µM) was 1.13, the relative viability ([14]; first compound 0.05 µM) was 0.798 and the relative viability ([14]; first compound 0.1581 µM) was 1.14. The relative viability ([14]; first compound 0.5 µM) was 1.03, the relative viability ([15]; first compound 0.005 µM) was 0.836 and the relative viability ([15]; first compound 0.01581 µM) was 1.07. It also gave a relative viability ([15]; first compound 0.05 µM) of 1.12, a relative viability ([15]; first compound 0.1581 µM) of 0.921 and a relative viability ([15]; first compound 0.5 µM) of 0.887. It also gave a relative viability ([16]; first compound 0.005 µM) of 0.862, a relative viability ([16]; first compound 0.01581 µM) of 0.838 and a relative viability ([16]; first compound 0.05 µM) of 0.861. It also gave a relative viability ([16]; first compound 0.1581 µM) of 0.822, a relative viability ([16]; first compound 0.5 µM) of 0.909 and a relative viability ([17]; first compound 0.005 µM) of 1.06. For the same compound, the relative viability ([17]; first compound 0.01581 µM) was 1.28, the relative viability ([17]; first compound 0.05 µM) was 1.21 and the relative viability ([17]; first compound 0.1581 µM) was 1.06. For the same compound, the relative viability ([17]; first compound 0.5 µM) was 1.05, the relative viability ([18]; first compound 0.005 µM) was 0.567 and the relative viability ([18]; first compound 0.01581 µM) was 0.595. It also gave a relative viability ([18]; first compound 0.05 µM) of 0.634, a relative viability ([18]; first compound 0.1581 µM) of 0.506 and a relative viability ([18]; first compound 0.5 µM) of 0.743. The relative viability ([19]; first compound 0.005 µM) was 0.805, the relative viability ([19]; first compound 0.01581 µM) was 0.915 and the relative viability ([19]; first compound 0.05 µM) was 0.979. For the same compound, the relative viability ([19]; first compound 0.1581 µM) was 0.894, the relative viability ([19]; first compound 0.5 µM) was 0.874 and the relative viability ([20]; first compound 0.005 µM) was 0.846. The relative viability ([20]; first compound 0.01581 µM) was 0.975, the relative viability ([20]; first compound 0.05 µM) was 1.14 and the relative viability ([20]; first compound 0.1581 µM) was 0.894. The relative viability ([20]; first compound 0.5 µM) was 0.834, the relative viability ([21]; first compound 0.005 µM) was 0.646 and the relative viability ([21]; first compound 0.01581 µM) was 0.583. It also gave a relative viability ([21]; first compound 0.1581 µM) of 0.636 and a relative viability ([21]; first compound 0.5 µM) of 0.401.
